Measured values: patent EP4692071A1, “PHOTOCHROMIC COMPOUND, NAPHTHOL DERIVATIVE, CURABLE COMPOSITION, OPTICAL ARTICLE, LENS, AND EYEGLASS” (TOKUYAMA CORPORATION, priority 2023, dated 2024)
Where “and” joins values, the source holds several entries; their conditions need not be identical. Identical values can stand only once.

Experiments:
Format in all cases: physicochemical
[1] = 35°C color optical density (A35): absorbancy difference ε(240)-ε(0) after 240 s light irradiation at 35°C; conditions: 240 s irradiation
Procedure: (§1) • [1] Maximum Absorption Wavelength (λmax): The maximum absorption wavelength after color development, measured using a spectrophotometer (instantaneous multichannel photodetector MCPD3000) manufactured by Otsuka Electronics Co., Ltd. was used as an indicator for the color tone during the color development. • [2] 23°C Color Optical Density (A23): A difference between an absorbancy measured after light irradiation at 23°C for 240 seconds {ε(240)} and an absorbancy without light irradiation ε(0) at the maximum absorption wavelength was used as an indicator for the color optical density. […] 35°C Color Optical Density (A35): A difference between an absorbancy measured after light irradiation at 35°C for 240 seconds {ε(240)} and an absorbancy without light irradiation ε(0) at the first and second absorption wavelengths was used as an indicator for the color optical density. […] 23°C color fading half-life [τ1/2 (sec.)]: A time required for the absorbancy of the sample at the maximum absorption wavelength to decrease to 1/2 of {ε(240)-ε(0)} when the light irradiation is terminated after the light irradiation at 23°C for 240 seconds, was used as an indicator for the color fading speed. The shorter this time, the higher the color fading speed. • [6] Residual rate (A90/A0×100): The obtained photochromic plastic lens was subjected to accelerated deterioration using a xenon weather meter X25 manufactured by Suga Test Instruments Co., Ltd. for 90 hours. Subsequently, the color optical density was evaluated before and after the test, then a color optical density before the test (A0) and a color optical density after the test (A90) were measured, and a ratio (A90/A0) was defined as a residual rate. The residual rate was used as an indicator for a color developing durability. The higher the residual rate, the higher the color developing durability.

[2] = High-temperature color development rate (A35/A23×100), temperature dependency
Procedure: as §1

[3] = Maximum absorption wavelength (λmax) after color development, spectrophotometer MCPD3000; conditions: for Maximum absorption wavelength: after color development
Procedure: as §1

[4] = 23°C color optical density (A23): absorbancy difference ε(240)-ε(0) after 240 s light irradiation at 23°C; conditions: 240 s irradiation
Procedure: as §1

[5] = Residual rate (A90/A0×100) after 90 h accelerated deterioration in xenon weather meter X25, color developing durability; conditions: for Residual rate (%): xenon weather meter 90 hours; for Residual rate: after 90 h accelerated deterioration
Procedure: as §1

[6] = cured product by kneading method, 1 mm
[7] = photochromic laminate by coating method
[8] = photochromic cured product, thickness 1 mm (kneading method)
[9] = photochromic laminate prepared by coating method

Row | A35/A23 *100 ([2]; binder sheet (binder method)) [%] | A35/A23 *100 [2, 8] [%] | A35/A23 *100 [2, 9] | Maximum absorption wavelength ([3]; binder sheet (binder method)) [nm] | Maximum absorption wavelength [3, 8] [nm] | Maximum absorption wavelength [3, 9] | Residual rate ([5]; binder sheet (binder method)) [%] | Residual rate [5, 8] [%] | Residual rate [5, 9] [%] | SMILES | other results
1 | – | – | – | – | – | – | – | – | – | COc1ccc(C2(c3ccc(OC)cc3)C=Cc3c4c(c5cc(N(C)c6ccccc6)c(OC)cc5c3O2)-c2ccccc2C4(C)C)cc1 [Example 1 Formula (28)] | A35 (-) ([1]; binder sheet (binder method)): 0.80 -; A35 (-) [1, 6]: 0.83 -; A35 (-) [1, 7]: 0.79 -; A35/A23 *100 (%) ([2]; binder sheet (binder method)): 69%; A35/A23 *100 (%) [2, 6]: 70%; A35/A23 *100 (%) [2, 7]: 69%; Maximum absorption wavelength (nm) ([3]; binder sheet (binder method), urethaneurea resin photochromic layer between polycarbonate sheets, 0.25 mmol per 100 parts by mass resin): 501 nm; Maximum absorption wavelength (nm) ([3]; photochromic cured product by kneading method, 1 mm thick thiourethane, 0.106 mmol per 100 g monomers): 505 nm; Maximum absorption wavelength (nm) ([3]; photochromic laminate by coating method, 40 µm photochromic layer on thiourethane lens, 0.25 mmol compound per 100 g monomers): 501 nm; A23 (-) ([4]; binder sheet (binder method)): 1.17 -; A23 (-) [4, 6]: 1.19 -; A23 (-) ([4]; photochromic laminate by coating method, at the maximum absorption wavelength): 1.15 -; Residual rate (%) ([5]; binder sheet (binder method)): 95%; Residual rate (%) [5, 6]: 89%; Residual rate (%) [5, 7]: 83%
2 | 74 | 75 | 74% | 532 | 536 | 532 nm | 88 | 79 | 74 | COc1ccc(C2(c3ccc(OC)cc3)C=Cc3c4c(c5cc(N6CCc7ccccc76)c(OC)cc5c3O2)-c2ccccc2C4(C)C)cc1 [Formula (28A)] | –
3 | 78 | 80 | 78% | 531 | 535 | 531 nm | 90 | 80 | 75 | CCCOc1ccc(C2(c3ccc(OCCC)cc3)C=Cc3c4c(c5cc(N6CCc7ccccc76)c(OC)cc5c3O2)-c2ccc(-c3ccc(C)cc3)cc2C42CCCCCCC2)cc1 [Formula (35A)] | –
4 | 75 | 76 | 75% | 533 | 537 | 533 nm | 85 | 76 | 71 | COCCCC1(CCCOC)c2ccccc2-c2c1c1c(c3cc(OC)c(N4CC(C)c5ccccc54)cc23)OC(c2ccc(OC)cc2)(c2ccc(OC)cc2)C=C1 (stereo not drawn) [Formula (39A)] | –
5 | 75 | 76 | 75% | 535 | 539 | 535 nm | 85 | 75 | 70 | CCC1(CC)c2cc(C)ccc2-c2c1c1c(c3cc(C)c(N4CCc5ccccc54)cc23)OC(c2ccc(C)cc2)(c2ccc(OC)cc2)C=C1 (stereo not drawn) [Formula (42A)] | –
6 | – | – | 67% | – | – | 489 nm and 596 nm | – | – | 65 | COc1ccc(C2(c3ccc(N4CCOCC4)cc3)C=Cc3c4c(c5cc(N6CCc7ccccc76)c(C)cc5c3O2)-c2ccc(OC)cc2C4(CCCC(F)(F)F)CCCC(F)(F)F)cc1 (stereo not drawn) [Formula (45A)] | –
7 | 62 | – | 62% | 539 | – | 539 nm | 84 | – | 69 | CCCCCCOc1ccc(C2(c3ccc(OCCCCCC)cc3)C=Cc3c4c(c5cc(N6CCc7cc(OC)ccc76)c(OC)cc5c3O2)-c2ccc(-c3ccc(C(F)(F)F)cc3)cc2C42CC(C)(C)CC(C)(C)C2)cc1 [Formula (48A)] | –
8 | 70 | 71 | 70% | 522 | 526 | 522 nm | 84 | 76 | 70 | COCCOCCOCCC1(CCOCCOCCOC)c2ccccc2-c2c1c1c(c3cc(OC)c(N4CCc5cc(F)ccc54)cc23)OC(c2ccc(OC)cc2)(c2ccc(OC)cc2)C=C1 [Formula (50A)] | –
9 | 75 | 76 | 75% | 535 | 539 | 535 nm | 92 | 82 | 76 | COc1ccc(C2(c3ccc(OC)cc3)C=Cc3c4c(c5cc(N6CCc7cc(C)ccc76)c(OC)cc5c3O2)-c2ccccc2C4(C)C)cc1 [Formula (52A)] | –
10 | – | – | 66% and 67% | – | – | 592 nm and 486 nm | – | – | 69 | CCCOc1ccc(C2(c3ccc(OCCC)cc3)C=Cc3c4c(c5cc(N6CCc7cc(C(F)(F)F)ccc76)c(OC)cc5c3O2)-c2ccccc2C4(CCC)CCC)cc1 [Formula (54A)] | –
11 | 70 | – | 70% | 548 | – | 548 nm | 80 | – | 65 | COc1ccc(C2(c3ccc(N(c4ccccc4)c4ccccc4)cc3)C=Cc3c4c(c5cc(N6CCc7ccccc76)c(OC)cc5c3O2)-c2ccccc2C42CCC3(CCCCC3)CC2)cc1 (stereo not drawn) [Formula (57A)] | –
12 | – | – | 71% | – | – | 535 nm and 595 nm | – | – | 69 | CCC1(CC)CCC2(CC1)c1cc(-c3ccccc3)ccc1-c1c2c2c(c3cc(OC)c(N4CCc5ccccc54)cc13)OC(c1ccc(C)cc1)(c1ccc(N(C)c3ccccc3)cc1)C=C2 (stereo not drawn) [Formula (60A)] | –
13 | 66 | 67 | 66% | 527 | 531 | 527 nm | 83 | 75 | 73 | COc1ccc(C2(c3ccc(OC)c(OC)c3)C=Cc3c4c(c5cc(N6CCc7ccccc76)c(OC)cc5c3O2)-c2ccccc2C4(CCC(F)(F)F)CCC(F)(F)F)cc1 (stereo not drawn) [Formula (67A)] | –
14 | 77 | 78 | 77% | 535 | 540 | 536 nm | 82 | 77 | 71 | CCCC1(C)c2cc(Oc3ccccc3)ccc2-c2c1c1c(c3cc(OC)c(N4CCc5ccccc54)cc23)OC(c2ccc(OC)cc2)(c2ccc3c(c2)CCO3)C=C1 (stereo not drawn) [Formula (70A)] | –
15 | 68 | – | 68% | 523 | – | 524 nm | 82 | – | 64 | CCCOc1ccc(C2(c3ccc(OC)cc3)C=Cc3c4c(c5cc(N6CCc7ccccc76)c(C)cc5c3O2)-c2ccc(-c3ccc(F)c(F)c3F)cc2C4(CCCCOC)CCCCOC)cc1F (stereo not drawn) [Formula (78A)] | –
16 | 72 | 73 | 71% | 522 | 526 | 522 nm | 84 | 74 | 71 | COc1ccc(C2(c3ccc(OC)cc3)C=Cc3c4c(c5cc(N6CCc7ccccc76)c(-c6ccc(OC)cc6OC)cc5c3O2)-c2ccccc2C4(C)C)cc1 [Formula (I), reference compound] | –

Row | SMILES | A35/A23 *100 ([2]; binder sheet (binder method)) [%] | A35/A23 *100 [2, 8] [%] | A35/A23 *100 [2, 9] | Maximum absorption wavelength ([3]; binder sheet (binder method)) [nm] | Maximum absorption wavelength [3, 8] [nm] | Maximum absorption wavelength [3, 9] | Residual rate ([5]; binder sheet (binder method)) [%] | Residual rate [5, 8] [%] | Residual rate [5, 9] [%] | other results
17 | CCC1(CC)CCC2(CC1)c1cc(OC(F)(F)F)ccc1-c1c2c2c(c3cc(OC)c(N4CCc5ccccc54)cc13)OC(c1ccc(OC)cc1)(c1ccc(OCCCO[Si](C)(C)CC[Si](O[Si](C)(C)C)(O[Si](C)(C)C)O[Si](C)(C)C)cc1)C=C2 (stereo not drawn) [Formula (74A)] | 64 | 65 | 64% | 522 | 526 | 522 nm | 83 | 77 | 72 | –
